Measured values as given in patent US8686050B2, “Diglycidic ether derivative therapeutics and methods for their use” (British Columbia Cancer Agency Branch, priority 2008, dated 2014).
Several values for one entry are separate records, joined by “and”; a condition that tells them apart may be missing. Equal values may be shown once. Values belong to the compound of their own block, whether it stands above or below them.

Experiments:
AR [1] = biological target: T1, AR (Homo sapiens, UniProt P10275, T878A); assay: PSA (6.1 kb)-luciferase (p6.1luc) reporter in LNCaP cells; type: cell-based; design: LNCaP cells express endogenous AR and secrete prostate-specific antigen (PSA); endogenous in cells; host or cells: LNCaP
T1 sequence (P10275 1-920 T878A): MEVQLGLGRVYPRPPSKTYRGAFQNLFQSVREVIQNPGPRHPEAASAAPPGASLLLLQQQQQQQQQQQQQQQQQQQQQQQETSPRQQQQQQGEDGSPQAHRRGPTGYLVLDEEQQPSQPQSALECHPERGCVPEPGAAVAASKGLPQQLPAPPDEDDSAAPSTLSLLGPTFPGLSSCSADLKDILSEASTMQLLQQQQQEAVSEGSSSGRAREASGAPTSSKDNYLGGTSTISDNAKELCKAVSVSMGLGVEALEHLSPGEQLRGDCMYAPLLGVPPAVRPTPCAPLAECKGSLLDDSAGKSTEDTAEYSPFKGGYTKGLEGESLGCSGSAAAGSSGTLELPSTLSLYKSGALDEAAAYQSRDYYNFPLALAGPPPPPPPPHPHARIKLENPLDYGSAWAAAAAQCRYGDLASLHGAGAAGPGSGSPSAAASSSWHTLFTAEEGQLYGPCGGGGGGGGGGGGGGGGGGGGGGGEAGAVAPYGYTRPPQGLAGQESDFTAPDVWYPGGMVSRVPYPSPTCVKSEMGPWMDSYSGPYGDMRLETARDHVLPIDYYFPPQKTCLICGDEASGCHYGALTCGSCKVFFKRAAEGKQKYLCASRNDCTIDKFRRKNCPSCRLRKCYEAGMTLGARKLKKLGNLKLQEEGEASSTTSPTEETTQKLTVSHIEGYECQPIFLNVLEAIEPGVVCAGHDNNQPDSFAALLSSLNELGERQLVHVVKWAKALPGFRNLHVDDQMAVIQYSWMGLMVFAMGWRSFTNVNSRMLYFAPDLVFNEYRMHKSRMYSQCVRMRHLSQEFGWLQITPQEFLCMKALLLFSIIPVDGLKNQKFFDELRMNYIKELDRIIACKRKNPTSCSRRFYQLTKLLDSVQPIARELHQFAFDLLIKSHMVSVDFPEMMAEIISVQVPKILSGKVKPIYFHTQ
Source text: LNCaP cells were employed initially for all experiments because they are well-differentiated human prostate cancer cells in which ligand-independent activation of the AR by FSK has been characterized (Nazareth et al 1996 J. Biol. Chem. 271, 19900-19907; and Sadar 1999 J. Biol. Chem. 274, 7777-7783). LNCaP cells express endogenous AR and secrete prostate-specific antigen (PSA) (Horoszewicz et al 1983 Cancer Res. 43, 1809-1818). LNCaP cells can be grown either as monolayers in cell culture or as tumors in the well-characterized xenograft model that progresses to androgen independence in castrated hosts (Sato et al 1996 J. Steroid Biochem. Mol. Biol. 58, 139-146; Gleave et al 1991 Cancer Res. 51, 3753-3761; Sato et al 1997 Cancer Res. 57, 1584-1589; and Sadar et al 2002 Mol. Cancer. Ther. 1(8), 629-637). […] Small molecules that specifically target the AR-NTD should have no effect on PC3 cells. This means that they should not alter the proliferation of PC3 cells if they specifically block the AR to mediate their inhibitory effects. R1881 was employed since it is stable and avoids problems associated with the labile physiological ligand dihydrotestosterone (DHT). Reporter specificity may be determined using several alternative reporter gene constructs. Some well characterized ARE-driven reporter gene constructs that have been used extensively are the PSA (6.1 kb) enhance/promoter which contains several AREs and is highly inducible by androgens as well as by FSK (Ueda et al 2002 A J. Biol. Chem. 277, 7076-7085) and the ARR3-thymidine kinase (tk)-luciferase, which is an artificial reporter construct that contains three tandem repeats of the rat probasin ARE1 and ARE2 regions upstream of a luciferase reporter (Snoek et al 1996 J. Steroid Biochem. Mol. Biol. 59, 243-250).
To ensure that the inhibitory effects of PNG 01-185 extract on endogenous PSA protein was at the transcriptional level, reporter gene constructs were also examined. Activation of the endogenous AR was measured in LNCaP human prostate cancer cells by measuring androgen-responsive reporters that contain androgen response elements (AREs) such as the PSA-luciferase reporter gene construct or the ARR3-luciferase reporter. LNCaP cells maintained as monolayers were transfected with PSA-luciferase and were used to screen the crude extracts prepared from marine sponges as well as some selected commercial compounds. […] R1881 (1 nM) was used to mediate ligand-dependent activation of the AR and concentrations of FSK (50 μM) were used to mediate ligand-independent activation of the AR.

[2] = biological target: T2, Gal4 DBD-AR1-558 (AR NTD) (Homo sapiens, UniProt P10275); assay: Transactivation of the AR NTD (Gal4 DBD-AR1-558 with 5xGal4UAS-luciferase) in LNCaP cells; type: cell-based; conditions: for inhibition at 20 µM: read-out: inhibition of Fsk activation of Ga14ARN
T2 construct: cloning amino acids 1-558 of the human AR NTD into the C-terminus of Gal4 DBD; expressed in transfected cells; host or cells: LNCaP
T2 sequence (P10275 1-558): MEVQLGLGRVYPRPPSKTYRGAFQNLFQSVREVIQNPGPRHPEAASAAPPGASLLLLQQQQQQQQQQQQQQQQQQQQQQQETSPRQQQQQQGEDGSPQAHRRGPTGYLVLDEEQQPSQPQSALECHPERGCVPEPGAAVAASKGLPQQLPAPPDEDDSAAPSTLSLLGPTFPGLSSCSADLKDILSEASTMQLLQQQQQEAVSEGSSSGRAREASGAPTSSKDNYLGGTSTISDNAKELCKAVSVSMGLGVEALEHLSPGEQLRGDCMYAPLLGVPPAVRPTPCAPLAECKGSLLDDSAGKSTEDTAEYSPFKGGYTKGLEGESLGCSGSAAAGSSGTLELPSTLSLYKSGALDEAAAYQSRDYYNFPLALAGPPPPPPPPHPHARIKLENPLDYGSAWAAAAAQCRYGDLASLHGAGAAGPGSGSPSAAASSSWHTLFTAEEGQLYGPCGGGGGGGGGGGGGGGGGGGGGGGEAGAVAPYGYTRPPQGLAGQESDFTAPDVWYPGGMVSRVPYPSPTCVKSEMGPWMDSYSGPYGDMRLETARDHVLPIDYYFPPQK
Source text: These fractions were next tested for their ability to inhibit the AR NTD. […] Extracts identified above were screened by such assays as well as some compounds purchased from commercial suppliers.
Expression vectors for these chimeric proteins were cotransfected into LNCaP cells with a reporter gene containing the Gal4-binding site as cis-acting elements (p5×Gal4UAS-TATA-luciferase).

LNCaP xenografts = assay: LNCaP subcutaneous xenografts in castrated mice; type: in vivo, NOD-SCID male mice; conditions: castrated mice
Experimental: Six to eight-week old male athymic SCID mice were inoculated subcutaneously in the flank region via a 27-gauge needle with a 150 μl suspension of LNCaP or PC3 human prostate cancer cells (1×10^6 cells). The inoculations took place while the animal was under isofluorane anaesthesia. The tumor take rate is approximately 75%. Mice bearing tumors of 100 mm^3 were randomly assigned to treatment groups. Castration was performed as described below. Tumor volume (formula: L×W×H×0.5236) was measured in mice bearing LNCaP subcutaneous tumors that became palpable or visible and at least 40 mm^3. The animals were monitored daily and tumors were measured every 5 days.

AR [3] = biological target: T1, AR; assay: ARR3-luciferase reporter in LNCaP cells; type: cell-based; design: LNCaP cells express endogenous AR and secrete prostate-specific antigen (PSA); endogenous in cells; host or cells: LNCaP; conditions: read-out: inhibition of R1881 activation of ARR31uc
Source text: LNCaP cells were employed initially for all experiments because they are well-differentiated human prostate cancer cells in which ligand-independent activation of the AR by FSK has been characterized (Nazareth et al 1996 J. Biol. Chem. 271, 19900-19907; and Sadar 1999 J. Biol. Chem. 274, 7777-7783). LNCaP cells express endogenous AR and secrete prostate-specific antigen (PSA) (Horoszewicz et al 1983 Cancer Res. 43, 1809-1818). LNCaP cells can be grown either as monolayers in cell culture or as tumors in the well-characterized xenograft model that progresses to androgen independence in castrated hosts (Sato et al 1996 J. Steroid Biochem. Mol. Biol. 58, 139-146; Gleave et al 1991 Cancer Res. 51, 3753-3761; Sato et al 1997 Cancer Res. 57, 1584-1589; and Sadar et al 2002 Mol. Cancer. Ther. 1(8), 629-637). […] Reporter specificity may be determined using several alternative reporter gene constructs. […]
To ensure that the inhibitory effects of PNG 01-185 extract on endogenous PSA protein was at the transcriptional level, reporter gene constructs were also examined. Activation of the endogenous AR was measured in LNCaP human prostate cancer cells by measuring androgen-responsive reporters that contain androgen response elements (AREs) such as the PSA-luciferase reporter gene construct or the ARR3-luciferase reporter. […]

[4] = LNCaP, at 12.5 μM, read-out: inhibition of R1881 activation of p6.1luc

SMILES: CC(C)(c1ccc(OCC(O)CCl)cc1)c1ccc(OCC(O)CCl)cc1 (racemic) [BADGE.2HCl, Racemic BADGE×2HCl]
- LNCaP tumor volume at start of treatment, intratumoral (LNCaP xenografts; I.T. delivery): 109.6±17.4 mm^3
- size of LNCaP xenograft tumors, intratumoral injection (LNCaP xenografts; I.T. every 5 days, 20 mg/kg body weight): reduced the size of the tumors
- LNCaP tumor volume at the duration (end) of the experiment, intratumoral (LNCaP xenografts; i.t. every 5 days, five doses): 79.0±63.6 mm^3

SMILES: CC(C)(c1ccc(OCC(O)CCl)cc1)c1ccc(OCC(O)CCl)cc1 (centres unmarked) [drawing 124]
- inhibition of R1881 activation of p6.1luc (AR [1]; at 12.5 μM): 55%
- inhibition of R1881 activation of p6.1luc (AR [1]; concentration not given): 34.8%
- inhibition of Fsk activation of Ga14ARN ([2]; at 12.5 μM): 88%

SMILES: CC(C)(c1ccc(OCC(O)CCl)cc1)c1ccc(OCC(O)CCl)cc1 (centres unmarked) [drawing 123]
- inhibition at 12.5 µM (AR [1]; [4]): 69%
- inhibition of R1881 activation of p6.1luc (AR [1]; at 12.5 μM): 63%
- inhibition at 12.5 µM ([2]; LNCaP, read-out: inhibition of Fsk activation of Ga14ARN, at 12.5 μM): 79%

SMILES: CC(C)(c1ccc(OCC(O)CO)cc1)c1ccc(OCC(O)CO)cc1 (centres unmarked)
- inhibition at 50 µM (AR [3]): 10%

SMILES: CC(C)(c1ccc(OCC(O)CO)cc1)c1ccc(OCC(O)CI)cc1 (centres unmarked)
- inhibition at 12.5 µM (AR [1]; [4]): 20%
- inhibition at 20 µM (AR [1]; LNCaP, at 20 μM, read-out: inhibition of R1881 activation of p6.1luc): 33%
- inhibition at 20 µM ([2]; LNCaP): 7%

More lines, now with the values ahead:

- inhibition at 12.5 µM (AR [1]; [4]): 35%
- inhibition of R1881 activation of p6.1luc (AR [1]; at 12.5 μM): 33%
- inhibition at 20 µM ([2]; LNCaP): 33%
SMILES: CC(C)(c1ccc(OCC(O)CI)cc1)c1ccc(OCC(O)CI)cc1 (centres unmarked) [drawing 125]

- inhibition of R1881 activation of p6.1luc (AR [1]; at 12.5 μM): 42% and 29%
SMILES: CC(C)(c1ccc(OCC(O)CI)cc1)c1ccc(OCC(O)CI)cc1 (centres unmarked) [drawing 126]
